Measurements published in US4507314A, “Drug for treating affections provoked by a too high histamine level, of the gastroduodenal mucosa and allergic affections” (Midit, Societe Fiduciaire, priority 1983, dated 1985).
Read-outs that look alike come from different tables or passages of the source.

What was measured:
[1] = system: histamine level of the plasma
Text: (§1) Photographs of the ulcer and biopsies of the stomach mucosa were taken before and after each week of treatment.

[2] = system: histamine levels in the fundus, corpus and antrum mucosa; details: 4 weeks
Text: as §1

[3] = system: rat peritoneal mastocytes; details: 30 mg/kg per os, 3 times a day during 3 days; 0.5 μg/ml compound 48/80, 10 minutes at 37° C.
[4] = system: stress induced gastric ulcers; details: 30 mg/kg oral, 3 times a day during 3 days; immobilisation 12 hours; control group 38%
Experimental: The tested product was given 3 times a day during the 3 days preceding the experiment. The last administration was given 1 hour before immobilisation of the rats during 12 hours.

[5] = system: necrosis of the gastric mucosa induced by acetic acid; details: 150 mg/kg orally, twice a day during 5 days
Experimental: In rats fasted for 24 hours, necrosis of the gastric mucosa was induced by intra-gastric administration of acetic acid (1 ml at 20%) one hour before treatment.
Accordingly the rats were sacrified, the stomach mucosa was photographed and the lesions were scored.

[6] = system: histamine level in lung tissue; details: 30 mg/kg per os, 3 times a day during 3 days; five hours after the last treatment
Experimental: The drug was administered per os as a suspension in carboxymethyl cellulose (1% in water).

human duodenal ulcer = details: after 1 month of treatment, 1500 mg daily
Text: as §1

intragastric pH = details: in vivo
Text: as §1

[7] = system: histamine content in rat stomach mucosa; details: 30 mg/kg intraperitoneal
leucocytes = details: preincubation 10 minutes at 37° C., pollen or house dust 30 minutes
Experimental: Then the histamin level was measured in the leucocyte suspension and the supernatant liquid and compared to the values obtained from the controls.

[8] = system: histamine level of the mucosa of the fundus, of the corpus and of the antrum; details: 3 days, healthy persons
histidine decarboxylase = molecular target: T1, histidine decarboxylase (Oryctolagus cuniculus, UniProt G1TCH4); test: inhibition of histidine decarboxylase extracted from rabbit stomach, in vitro; details: read-out: IC50, inhibition of histidine decarboxylase, enzyme extracted from rabbit stomach
T1 sequence (G1TCH4 1-661): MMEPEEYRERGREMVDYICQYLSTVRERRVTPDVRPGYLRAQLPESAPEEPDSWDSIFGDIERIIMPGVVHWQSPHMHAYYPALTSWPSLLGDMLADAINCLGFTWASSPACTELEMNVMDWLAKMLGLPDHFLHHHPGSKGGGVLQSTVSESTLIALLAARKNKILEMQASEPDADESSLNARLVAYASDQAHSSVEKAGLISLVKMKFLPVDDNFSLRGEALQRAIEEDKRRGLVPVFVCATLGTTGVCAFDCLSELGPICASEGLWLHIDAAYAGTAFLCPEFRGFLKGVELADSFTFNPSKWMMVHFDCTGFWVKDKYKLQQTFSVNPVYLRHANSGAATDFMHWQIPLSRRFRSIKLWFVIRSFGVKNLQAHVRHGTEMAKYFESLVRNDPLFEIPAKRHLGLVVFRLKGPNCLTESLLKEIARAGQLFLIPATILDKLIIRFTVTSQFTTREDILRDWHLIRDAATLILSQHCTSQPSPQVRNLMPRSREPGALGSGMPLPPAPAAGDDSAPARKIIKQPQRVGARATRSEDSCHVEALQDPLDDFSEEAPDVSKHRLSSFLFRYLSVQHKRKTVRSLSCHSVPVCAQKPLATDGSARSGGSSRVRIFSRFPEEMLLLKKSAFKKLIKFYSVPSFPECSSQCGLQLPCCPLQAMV

[9] = system: histamine content in the lungs; details: 30 mg/kg intraperitoneal
[10] = system: rat peritoneal mastocytes; details: 10^-50 M (so in the source); 48/80 stimulated; 37° C., 10 minutes
[11] = system: gastric ulcers induced in rats by immobilisation; details: intraperitoneal; expressed in terms of dry (+)-catechin; immobilised 12 hours
Experimental: (a) on ulcers induced by stress caused by immobilization: After one week adaptation to the environment, female rats, (30 animals per group, 5 per cage), were immobilised during 12 hours by wrapping them, under narcosis with ether, in a plaster bandage.
After sacrifice of the animals, the dissected stomach was visually inspected and the lesions of the mucosa were scored according to their number and their intensity.
The products to be tested were administered, immediately before the test, by intraperitoneal injection of 2 ml of a freshly prepared saline solution. The doses tested varied from 0.1 to 50 mg/kg. The controls received 2 ml of saline.

[12] = 1500 mg daily, duodenal ulcer patients

CN/C(=N/CCSCc1nc[nH]c1C)NC#N [cimetidine, reference compound]
effect on the histamine levels in the plasma ([1]; 800 mg cimetidine daily, 4 weeks): no notable effect or induced an increase | increase of the histamine levels in the plasma ([1]; in some cases, 800 mg cimetidine daily, 4 weeks): more than 10% | effect on the histamine levels in the stomach mucosa ([2]; 800 mg cimetidine daily): no notable effect or induced an increase | increase of the histamine levels in the stomach mucosa ([2]; in some cases, 800 mg cimetidine daily): more than 10%

(+)-catechin hydrochlorolysinate
decrease of histamine release of the mastocytes compared to the controls [3]: 22% | proportion of rats with severe lesions [4]: 15% | reduction of the number of animals with severe lesions [5]: 50% | decrease of the histamine level in the homogenized lung tissue compared to the control group [6]: 38% | mean histamine level of the plasma after treatment ([1]; 1500 mg daily, decreased from 0.7 (±0.3) ng/ml, observed after one week, constant during the following 3 weeks): 0.3 (±0.1) ng/ml | decrease of the histamine levels in the fundus, corpus and antrum mucosa [2, 12]: ~20% | decrease of the number of mastocytes in the fundus, corpus and antrum mucosa [2, 12]: ~20% | ulcer diameter of the other (not fully recovered) patients (human duodenal ulcer): decreased significantly | patients fully recovered (human duodenal ulcer; out of 11): 7 patients | effect on the intragastric pH (intragastric pH): no effect | decrease of the histamine content in rat stomach mucosa [7]: 33% | release inhibition, leucocytes (leucocytes; 10^-5 M): 45% | release inhibition, leucocytes (leucocytes; 10^-6 M): 45% | number of mastocytes ([8]; 500, 1000 or 1500 mg per day per os, same way as the histamine level): decreased in the same way | decrease of the histamine level of the mucosa of the fundus, of the corpus and of the antrum ([8]; highest dose (1500 mg per day), per os, dose dependent): 30% | IC50 (histidine decarboxylase): 100 µM | decrease of the histamine content in the lungs [9]: 38% | inhibition of release of histamine from rat peritoneal mastocytes [10]: 27% | ED50 in the gastric ulcers induced in rats by immobilisation [11]: 5 mg/kg

(+)-catechin ascorbolysinate
ED50 in the gastric ulcers induced in rats by immobilisation [11]: 1.5 mg/kg
